This is an account of results in patent publication US20050256003A1, “Novel herbicides” (priority 2002, published 2005).

For test [1], the system named is monocotyledonous and dicotyledonous test plants. The test is described as follows: Post-emergence herbicidal action. The class given is in vivo. Further details: key: 10=total damage; 0=no action; Ratings of from 10 to 7 (especially from 10 to 8) indicate good to very good herbicidal action. The settings on record: 250 g a.i./ha, about 18 days, rating 0-10. How it is done: Post-Emergence Herbicidal Action
In a greenhouse, monocotyledonous and dicotyledonous test plants are grown in standard soil in plastic pots and at the 4- to 6-leaf stage are sprayed with an aqueous suspension of the test compounds of formula I prepared from a 25% wettable powder (Example F3, b) according to WO 97/34485) or with an emulsion of the test compounds of formula I prepared from a 25% emulsifiable concentrate (Example F1, c) according to WO 97/34485), in a concentration corresponding to 125 g or 250 g of active ingredient/ha (500 litres of water/ha). The test plants are then grown on in a greenhouse under optimum conditions. After a test duration of about 18 days, the test is evaluated in accordance with a scale of nine ratings (10=total damage, 0=no action). Ratings of from 10 to 7 (especially from 10 to 8) indicate good to very good herbicidal action.

The test system is the same in test [2]. Kind of test: Herbicidal action prior to emergence of the plants (pre-emergence action). It is filed as in vivo. Further details: key: 10=total damage; 0=no action; Ratings of from 10 to 7 (especially from 10 to 8) indicate good to very good herbicidal action. The settings on record: 250 g a.i./ha, pre-emergence spray, evaluated after 3 weeks, scale 10=total damage, 0=no action. An excerpt:
Herbicidal Action Prior to Emergence of the Plants (Pre-Emergence Action)
Monocotyledonous and dicotyledonous test plants are sown in standard soil in plastic pots Immediately after sowing, the test compounds, in the form of an aqueous suspension (prepared from a 25% wettable powder (Example F3, b) according to WO 97/34485) or in the form of an emulsion (prepared from a 25% emulsifiable concentrate (Example F1, c)), are applied by spraying in a concentration corresponding to 125 g or 250 g of active ingredient/ha (500 litres of water/ha). The test plants are then grown in a greenhouse under optimum conditions. After a test duration of 3 weeks, the test is evaluated in accordance with a scale of nine ratings (10=total damage, 0=no action). Ratings of from 10 to 7 (especially from 10 to 8) indicate good to very good herbicidal action.

The structures appear in SMILES notation.

As for `CC(C)N1CC(=O)N(Cc2nc(C(F)(F)F)ccc2C(=O)c2cnn(C)c2O)C1=O` [Compound B1.170], in test [1], the “Post-emergence action, Amaranthus” value was 9; the “Post-emergence action, Chenopodium” value is 9; the “Post-emergence action, Echinochloa” value was found to be 9; the “Post-emergence action, Euphorbia” value is listed as 7. Moreover, in test [1], the “Post-emergence action, Ipomea” value is given as 0; the “Post-emergence action, Sinapis” value worked out at 9; the “Post-emergence action, Stellaria” value amounted to 9; the “Post-emergence action, Xanthium” value amounted to 6. In test [2], the “Pre-emergence action: Abutilon (rating)” value turned out to be 9, the “Pre-emergence action: Amaranthus (rating)” value is listed as 9, the “Pre-emergence action: Chenopodium (rating)” value is 10 and the “Pre-emergence action: Cyperus (rating)” value is 8. Also, in test [2], the “Pre-emergence action: Echinochloa (rating)” value is on record as 9, the “Pre-emergence action: Panicum (rating)” value is reported as 9, the “Pre-emergence action: Scirpus (rating)” value is reported as 9 and the “Pre-emergence action: Sida (rating)” value is reported as 9.

For the compound `Cc1nn(Cc2nc(C(F)(F)F)ccc2C(=O)C2=C(O)C3CCC(C3)C2=O)c(=O)s1` (stereo not drawn) [Compound A6.079], in test [2], the “Pre-emergence action: Abutilon (rating)” value is given as 10, the “Pre-emergence action: Amaranthus (rating)” value amounted to 7, the “Pre-emergence action: Chenopodium (rating)” value worked out at 10 and the “Pre-emergence action: Cyperus (rating)” value is 6. In test [2], the “Pre-emergence action: Echinochloa (rating)” value is reported as 7, the “Pre-emergence action: Panicum (rating)” value is 9, the “Pre-emergence action: Scirpus (rating)” value came out at 9 and the “Pre-emergence action: Sida (rating)” value stood at 6.

In the case of `CSC(C)n1c(C)cc(=O)n1Cc1nc(C(F)(F)F)ccc1C(=O)C1=C(O)CCCC1=O` (racemic) [Compound A1.055], in test [2], the “Pre-emergence action: Abutilon (rating)” value is recorded as 10, the “Pre-emergence action: Amaranthus (rating)” value came to 0, the “Pre-emergence action: Chenopodium (rating)” value is given as 10 and the “Pre-emergence action: Cyperus (rating)” value was 10. In addition, in test [2], the “Pre-emergence action: Echinochloa (rating)” value is on record as 10, the “Pre-emergence action: Panicum (rating)” value is given as 9, the “Pre-emergence action: Scirpus (rating)” value was 9 and the “Pre-emergence action: Sida (rating)” value is on record as 10.

As for `COc1nn(Cc2nc(C(F)(F)F)ccc2C(=O)C2=C(O)CCCC2=O)c(=O)n1C1CC1` [Compound A1.031], in test [1], the “Post-emergence action, Amaranthus” value worked out at 9; the “Post-emergence action, Chenopodium” value turned out to be 10; the “Post-emergence action, Echinochloa” value came out at 7; the “Post-emergence action, Euphorbia” value is on record as 8. Besides, in test [1], the “Post-emergence action, Ipomea” value amounted to 9; the “Post-emergence action, Sinapis” value came out at 8; the “Post-emergence action, Stellaria” value is recorded as 9; the “Post-emergence action, Xanthium” value is on record as 9.

For the compound `CCOc1nn(Cc2nc(C(F)(F)F)ccc2C(=O)C2=C(O)CCCC2=O)c(=O)n1C1CC1` [Compound A1.049], in test [1], the “Post-emergence action, Amaranthus” value is listed as 9; the “Post-emergence action, Chenopodium” value is recorded as 8; the “Post-emergence action, Echinochloa” value worked out at 8; the “Post-emergence action, Euphorbia” value stood at 9. Moreover, in test [1], the “Post-emergence action, Ipomea” value is 9; the “Post-emergence action, Sinapis” value was 8; the “Post-emergence action, Stellaria” value came to 8; the “Post-emergence action, Xanthium” value came to 9.

Regarding `Cc1nn(Cc2nc(C(F)(F)F)ccc2C(=O)C2=C(O)C(C)(C)CC(C)(C)C2=O)c(=O)s1` [Compound A7.009], in test [1], the “Post-emergence action, Amaranthus” value is reported as 4; the “Post-emergence action, Chenopodium” value is listed as 9; the “Post-emergence action, Echinochloa” value is 7; the “Post-emergence action, Euphorbia” value stood at 7. Moreover, in test [1], the “Post-emergence action, Ipomea” value turned out to be 7; the “Post-emergence action, Sinapis” value is reported as 8; the “Post-emergence action, Stellaria” value was determined as 7; the “Post-emergence action, Xanthium” value was 7.

For the compound `CN1CCN(Cc2nc(C(F)(F)F)ccc2C(=O)C2=C(O)CCCC2=O)C1=S` [Compound A1.202], in test [1], the “Post-emergence action, Amaranthus” value is given as 9; the “Post-emergence action, Chenopodium” value is recorded as 8; the “Post-emergence action, Echinochloa” value was determined as 8; the “Post-emergence action, Euphorbia” value is 9. Further, in test [1], the “Post-emergence action, Ipomea” value was 9; the “Post-emergence action, Sinapis” value is 8; the “Post-emergence action, Stellaria” value stood at 7; the “Post-emergence action, Xanthium” value is 9.

For `CSC(=O)n1c(C)cc(=O)n1Cc1nc(C(F)(F)F)ccc1C(=O)c1cnn(C)c1O` [Compound B1.062], in test [1], the “Post-emergence action, Amaranthus” value is recorded as 9; the “Post-emergence action, Chenopodium” value is listed as 9; the “Post-emergence action, Echinochloa” value came to 4; the “Post-emergence action, Euphorbia” value amounted to 9. In test [1], the “Post-emergence action, Ipomea” value was 7; the “Post-emergence action, Sinapis” value was 8; the “Post-emergence action, Stellaria” value is reported as 8; the “Post-emergence action, Xanthium” value was 6.

Consider `O=C1CCCC(O)=C1C(=O)c1ccc(C(F)(F)F)nc1Cn1sccc1=O` [Compound A1.109], for which, in test [1], the “Post-emergence action, Amaranthus” value was found to be 9; the “Post-emergence action, Chenopodium” value is recorded as 10; the “Post-emergence action, Echinochloa” value is listed as 8; the “Post-emergence action, Euphorbia” value turned out to be 10. Also, in test [1], the “Post-emergence action, Ipomea” value amounted to 9; the “Post-emergence action, Sinapis” value is recorded as 3; the “Post-emergence action, Stellaria” value was 5; the “Post-emergence action, Xanthium” value was 9.

Regarding `COc1nn(Cc2nc(C(F)(F)F)ccc2C(=O)C2=C(O)C(C)(C)C(=O)C(C)(C)C2=O)c(=O)s1` [Compound A8.095], in test [1], the “Post-emergence action, Amaranthus” value is 9; the “Post-emergence action, Chenopodium” value was determined as 5; the “Post-emergence action, Echinochloa” value is 9; the “Post-emergence action, Euphorbia” value is listed as 0. In test [1], the “Post-emergence action, Ipomea” value was 9; the “Post-emergence action, Sinapis” value came out at 8; the “Post-emergence action, Stellaria” value is reported as 7; the “Post-emergence action, Xanthium” value is recorded as 8.

On to `CSC(=O)n1c(C)cc(=O)n1Cc1nc(C(F)(F)F)ccc1C(=O)C1=C(O)C(C)(C)C(=O)C(C)(C)C1=O` [Compound A8.062], for which, in test [1], the “Post-emergence action, Amaranthus” value amounted to 9; the “Post-emergence action, Chenopodium” value was 10; the “Post-emergence action, Echinochloa” value is 9; the “Post-emergence action, Euphorbia” value is given as 9. In test [1], the “Post-emergence action, Ipomea” value turned out to be 8; the “Post-emergence action, Sinapis” value worked out at 9; the “Post-emergence action, Stellaria” value was found to be 5; the “Post-emergence action, Xanthium” value turned out to be 0.

Turning to `CC(C)c1cn(-c2ccccc2)c(=O)n1Cc1nc(C(F)(F)F)ccc1C(=O)c1cnn(C)c1O` [Compound B1.158], in test [1], the “Post-emergence action, Amaranthus” value amounted to 7; the “Post-emergence action, Chenopodium” value came to 8; the “Post-emergence action, Echinochloa” value is given as 4; the “Post-emergence action, Euphorbia” value is given as 7. Moreover, in test [1], the “Post-emergence action, Ipomea” value was found to be 8; the “Post-emergence action, Sinapis” value was found to be 7; the “Post-emergence action, Stellaria” value stood at 7; the “Post-emergence action, Xanthium” value was 5.

Regarding `CCOc1nn(Cc2nc(C(F)(F)F)ccc2C(=O)C2=C(O)CCCC2=O)c(=O)n1C` [Compound A1.037], in test [1], the “Post-emergence action, Amaranthus” value is 9; the “Post-emergence action, Chenopodium” value came out at 9; the “Post-emergence action, Echinochloa” value amounted to 4; the “Post-emergence action, Euphorbia” value came out at 8. In addition, in test [1], the “Post-emergence action, Ipomea” value is listed as 9; the “Post-emergence action, Sinapis” value was 8; the “Post-emergence action, Stellaria” value turned out to be 8; the “Post-emergence action, Xanthium” value came out at 9.

For `CCOc1nn(Cc2nc(C(F)(F)F)ccc2C(=O)C2=C(O)CCCC2=O)c(=O)n1C` [Compound A1.043], in test [1], the “Post-emergence action, Amaranthus” value is recorded as 9; the “Post-emergence action, Chenopodium” value is listed as 9; the “Post-emergence action, Echinochloa” value is listed as 7; the “Post-emergence action, Euphorbia” value is on record as 7. Moreover, in test [1], the “Post-emergence action, Ipomea” value was 9; the “Post-emergence action, Sinapis” value is on record as 6; the “Post-emergence action, Stellaria” value is given as 9; the “Post-emergence action, Xanthium” value is listed as 9.
